Assay results published in patent US20030186943A1, “Substituted gamma-phenyl-delta-lactams and uses related thereto” (Inflazyme Pharmaceuticals Ltd., priority 1998, published 2003).
Where two headings read alike, the source gives them in different places.

What was measured:
[1] = system: Resiniferitoxin-induced mouse ear edema; assay: Resiniferitoxin-induced mouse ear edema; type: in vivo; settings: Mus musculus, CD1 mice; for inhibition in vivo at 100 mg/kg: ip, intraperitoneal administration; for inhibition in vivo at 50 µg/ear: topical administration, 50 μg/ear, RTX 0.1 μg/ear; for inhibition in vivo at 10 mg/kg: oral administration
From the text: One of the primary characteristics of inflammation is an increase in vascular dilation and permeability leading to the extravasation of, and collection of fluids in, the interstitium, resulting in redness and swelling. Rheumatoid arthritis in particular is characterized by pronounced edema of affected joints resulting in significant pain and stiffness. The mouse ear inflammation model is a standard in vivo assay for inflammation that is based on an increase in ear weight which is attributable to edema induced by inflammatory mediators. RTX (resiniferitoxin; Sigma; Catalogue No. R 8756)) is a diterpene isolated from the plant Euphorbia poisonii and is an ultrapotent analog of capsaicin. RTX acts by selectively stimulating nociceptive and thermal-sensitive nerve ending in tissue, eliciting neurogenic edema. Compounds of the present invention, whether administered topically, intraperitoneally or orally, inhibited development of edema induced by topical application of RTX.
Mice (CD1, Charles River Laboratories) were separated into groups (n—5−8) and tagged. Control mice had RTX (0.1 μg/ear) applied topically to the inner and outer sides of the left ear and vehicle applied to the right ear as a control. For topical administration, experimental/treatment mice received RTX+test compound solution (50 μg/ear) on the left ear and acetone on the right ear. For intraperitoneal (i.p.) administration, 100 mg/kg test compound dissolved in 100 μL PEG 200:saline (1:1) was injected followed by a 30 minute waiting period then the standard 30 minute RTX edema induction. For oral (p.o.) administration, 10 mg/kg test compound in 100 μL PEG-200 was given to animals, then edema induced using 0.1 μg/ear RTX after a 1.5 hour waiting period. After edema induction, mice were sacrificed, and a standard disc of ear tissue was removed. Each disk of tissue was immediately weighed to the nearest 1/10th of a mg. Data were analyzed by taking the difference of each left ear from the right ear, calculating the mean+/−SEM. Statistical significance was tested by 2-sample t-test on the left/right ear weight differences of the control group vs. the experimental group.

PDE 2 (human platelets) = target: T1, PDE 2 (human platelets) (Homo sapiens, UniProt O00408); assay: PDE isozyme specificity: PDE 2; type: biochemical; settings: for inhibition at 100 µM: PDE2, X marks this range
T1 construct: PDE's for the various assays were partially purified from the following cells/tissues; tissue MDS Panlabs (assay service); host or cells: human platelets
T1 sequence (O00408 whole entry): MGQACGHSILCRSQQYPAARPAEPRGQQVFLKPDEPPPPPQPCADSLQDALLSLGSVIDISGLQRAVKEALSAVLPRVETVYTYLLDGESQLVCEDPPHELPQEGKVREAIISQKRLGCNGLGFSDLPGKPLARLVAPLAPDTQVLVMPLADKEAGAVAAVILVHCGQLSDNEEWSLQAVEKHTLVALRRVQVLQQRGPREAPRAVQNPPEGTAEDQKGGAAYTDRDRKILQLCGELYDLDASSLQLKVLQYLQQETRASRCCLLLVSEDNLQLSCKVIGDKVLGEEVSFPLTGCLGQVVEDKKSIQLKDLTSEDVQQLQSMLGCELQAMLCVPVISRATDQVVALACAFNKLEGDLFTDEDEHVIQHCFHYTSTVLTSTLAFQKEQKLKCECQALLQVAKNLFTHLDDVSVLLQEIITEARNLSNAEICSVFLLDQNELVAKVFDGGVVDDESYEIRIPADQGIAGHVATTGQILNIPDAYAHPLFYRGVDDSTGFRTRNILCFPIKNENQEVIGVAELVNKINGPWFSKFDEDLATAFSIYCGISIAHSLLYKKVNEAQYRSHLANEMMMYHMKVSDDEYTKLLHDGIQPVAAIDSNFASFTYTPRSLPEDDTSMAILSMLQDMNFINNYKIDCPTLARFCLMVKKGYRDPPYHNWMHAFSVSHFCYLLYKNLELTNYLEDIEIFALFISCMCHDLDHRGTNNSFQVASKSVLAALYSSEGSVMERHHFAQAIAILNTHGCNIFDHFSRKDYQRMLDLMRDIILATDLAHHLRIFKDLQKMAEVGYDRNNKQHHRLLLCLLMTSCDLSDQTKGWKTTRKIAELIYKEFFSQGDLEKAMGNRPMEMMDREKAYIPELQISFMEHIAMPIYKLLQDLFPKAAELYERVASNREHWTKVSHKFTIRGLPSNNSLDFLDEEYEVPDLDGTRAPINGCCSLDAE
From the text: (§1) Compound 12 was screened for activity against 5 of the major classes of mammalian cyclic nucleotide phosphodiesterase (termed PDE 1 through 5). PDE's 1 through 4 utilize cAMP as substrate while PDE 5 uses cGMP. The broad specificity PDE inhibitor 3-isobutyl-1-methylxanthine (IBMX; Sigma; Catalogue No. 17018)) was used as a positive control in all assays. PDE's for the various assays were partially purified from the following cells/tissues; PDE 1 (bovine heart), PDE 2 (human platelets), PDE 3 (human platelets), PDE 4 (human promonocytic U937 cells) and PDE 5 (human platelets).
(§2) Test compounds (at 100 μM) were screened for activity against PDE 1,2 and 5, using standard biochemical methods performed at MDS Panlabs (Bothell, Wash., USA). The broad specificity PDE inhibitor 3-isobutyl-1-methylxanthine (IBMX) was used as a positive control in all assays. PDE's for the various assays were partially purified from the following cells/tissues; PDE 1 (bovine heart), PDE 2 (human platelets) and PDE 5 (human platelets). For purposes of comparison, the effects on PDE3 (human platelets) and PDE4 (human U937 monocytic cell line) described above are presented again in Table 12.

[2] = system: cAMP Phosphodiesterase 4 from Human U937 Cells; assay: Inhibition of cAMP phosphodiesterase 4 from human U937 cells; type: biochemical
Procedure: PDE's 1 through 4 utilize cAMP as substrate while PDE 5 uses cGMP. […] PDE's for the various assays were partially purified from the following cells/tissues; PDE 1 (bovine heart), PDE 2 (human platelets), PDE 3 (human platelets), PDE 4 (human promonocytic U937 cells) and PDE 5 (human platelets).
Sonicated cell extracts were then centrifuged at 70,000 g for 30 minutes and supernatants removed. Sucrose was added to a final concentration of 0.25 M, aliquoted and stored at −80° C.
PDE reactions were performed for 30 minutes at 37° C. in 20 μL volumes in 1 μM [^3H] cAMP (Amersham website http://www.apbiotech.com), 0.5 U/mL 5′ nucleotidase (Sigma), 50 mM Tris Cl, 10 mM MgCl pH 7.5. U937 extract was added such that less than 10% of substrate was consumed. Test compound or vehicle was added to the desired concentration. […] Reactions were performed in duplicate. Reactions were terminated by addition of 200 μL Dowex 1-8400 Cl^− anion exchange resin in a ratio of 1 resin: 2 methanol: 1H2O. Samples were mixed by inversion and then allowed to settle for 2-3 hours.

PDE 1 (bovine heart) = PDE 1 (bovine heart) (Bos taurus, UniProt P14100); assay: PDE isozyme specificity: PDE 1; type: biochemical
PDE 1 (bovine heart), sequence (P14100 35-530): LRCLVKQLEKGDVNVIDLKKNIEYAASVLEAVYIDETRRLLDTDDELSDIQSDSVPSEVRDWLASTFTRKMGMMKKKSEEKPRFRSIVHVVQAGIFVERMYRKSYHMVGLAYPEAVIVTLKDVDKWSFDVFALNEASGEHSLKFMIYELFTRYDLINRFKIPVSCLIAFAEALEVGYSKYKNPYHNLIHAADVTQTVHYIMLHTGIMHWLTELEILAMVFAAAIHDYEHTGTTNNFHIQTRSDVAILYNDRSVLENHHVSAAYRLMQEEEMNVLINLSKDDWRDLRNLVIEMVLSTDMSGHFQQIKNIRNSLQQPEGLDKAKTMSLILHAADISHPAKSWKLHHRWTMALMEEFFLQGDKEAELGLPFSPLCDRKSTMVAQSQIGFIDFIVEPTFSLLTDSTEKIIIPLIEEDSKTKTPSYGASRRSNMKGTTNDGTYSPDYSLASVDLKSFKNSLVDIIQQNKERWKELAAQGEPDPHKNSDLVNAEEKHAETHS
From the text: as §1, §2

[3] = system: tail skin allograft rejection (C57BL/6 donor, BALB/c recipient mice); assay: Murine tail skin allograft transplantation model; type: in vivo, mouse; settings: 10 mg/kg i.p. twice daily; for Average graft survival: from one day prior to and for 15 days after transplantation; for # grafts surviving beyond 16 days p.t.: five mice per group
Procedure: Tail skin from donor H-2 b C57BL/6 mice was transplanted onto recipient female H-2^d BALB/c mice (Lagodzinski, Z. et al., Immunology 71:148-150 (1990)). Five mice were included per group. […] Test compounds and CsA were administered twice daily intraperitoneally at a dose of 10 mg/kg beginning at one day prior to transplantation and for 15 days after transplantation, including the day of transplantation. Mice were monitored and scored daily over 15 days post transplantation for graft rejection.
Skin allograft rejection is primarily mediated by T lymphocytes with little evidence for a major role of antibodies under most circumstances. Skin allograft rejection requires the activation of helper and cytotoxic effector T cell populations. Graft rejection was assessed by monitoring allograft necrosis. Because tail skin is visibly distinct from the surrounding trunk skin of the mouse, the course of rejection can be easily monitored. Fully intact grafts were scored as 100%. Complete graft rejection was defined as >90% graft necrosis. Acute graft rejection generally proceeds via a series of visually obvious events beginning with swelling and erythema of the graft. These events are followed by graft desiccation and scab formation over most or all of the graft, signaling the loss of the viable graft tissue. Scab formation is subsequently followed by shrinkage and scar formation.

[4] = read-out: % inhibition by 100 μM test compound 25-50
[5] = read-out: % inhibition by 100 μM test compound 50-75, PDE1, X marks this range

| Structure (SMILES) | inhibition in vivo at 100 mg/kg [1] [%] | inhibition in vivo at 50 µg/ear [1] [%] | Average graft survival [3] [days] | Allograft survival rate (% at 9 days post-transplant) [3] [%] | # grafts surviving beyond 16 days p.t. [3] | further results |
| --- | --- | --- | --- | --- | --- | --- |
| COc1cc(C[C@@H]2CC(c3ccc(OC)c(OC)c3)COC2=O)ccc1O (mixture of isomers) [Compound 12] | 61 | 85 |  |  |  | inhibitory effect on PDE 2 (PDE 2 (human platelets); human platelets): no significant inhibitory effects; inhibition at 100 µM (PDE 2 (human platelets); [4]): 25 to 50%; IC50 ([2]; human promonocytic U937 cells, read-out: IC50 PDE 4): 5.9 µM; inhibition at 100 µM (PDE 1 (bovine heart); [5]): 50 to 75% |
| COc1cc(C[C@@H]2C[C@@H](c3ccc(OC)c(OC)c3)COC2=O)ccc1O [Compound 30] | 28 | 98 |  |  |  | IC50 ([2]; PDE4 from U937 extract, 1 μM [3H] cAMP, X marks this range, read-out: IC50 range (μM) 1-10): 1 to 10 µM |
| COc1ccc([C@@H]2CCC(=O)OC2)cc1OC1CCCC1 [Compound 41] |  |  | 11.6 ± 4.6 | 60 | 1 | inhibition at 100 µM (PDE 2 (human platelets); [4]): 25 to 50%; inhibition at 100 µM (PDE 1 (bovine heart); read-out: % inhibition by 100 μM test compound 1-25, PDE1, X marks this range): 1 to 25% |
| COc1cc(CC2C[C@@H](c3ccc(OC)c(OC4CCCC4)c3)COC2=O)ccc1O (stereo partly drawn) [Compound 43] | 72 | 98 |  |  |  | inhibition in vivo at 10 mg/kg [1]: 45%; inhibition at 100 µM (PDE 2 (human platelets); read-out: % inhibition by 100 μM test compound 50-75): 50 to 75%; IC50 ([2]; read-out: IC50 against the catalytic activity of PDE4): 0.26 µM; inhibition at 100 µM (PDE 1 (bovine heart); [5]): 50 to 75% |
| COc1ccc([C@H]2CNC(=O)C(Cc3ccc(OCc4ccccc4)c(OC)c3)C2)cc1OC (stereo partly drawn) [Compound 54] |  |  | 11.5 ± 3.3 | 75 | 0 |  |
| COc1cc(CC2C[C@@H](c3ccc(OC)c(OC4CCCC4)c3)CNC2=O)ccc1O (stereo partly drawn) [Compound 62] |  |  |  |  |  | inhibition in vivo at 10 mg/kg [1]: 30% |
| COc1ccc(C2CNC(=O)C2)cc1OC1CCCC1 (stereo not drawn) [Rolipram, reference compound] |  |  | 11.5 ± 3.7 | 50 | 1 |  |
